Common to all, as to assay type: biochemical
Test [1] deals with T1, human JAK1 (a.a. 837-1142) (Homo sapiens, UniProt P23458).
T1 construct: human JAK1 (a.a. 837-1142); His tag (N); made in house; host or cells: insect cells (baculovirus)
Briefly: In vitro JAK kinase assay (HTRF, phosphorylation of a biotinylated peptide), JAK1. To be noted: read-out: JAK1 IC50. Summed up:
(§1)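 Kinase reactions ran at room temperature for 1 h with ATP matched per isoform (JAK1 90 μM, JAK2 30 μM, JAK3 3 μM). After an EDTA stop, the phosphorylated biotin-peptide was read by HTRF using Eu-Py20 and SA-APC after 40 min binding.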

In test [2] the target is T2, human JAK3 (a.a. 781-1124) (Homo sapiens, UniProt P52333).
T2 construct: JAK3 (a.a. 781-1124); His tag (N); made in house; host or cells: insect cells (baculovirus)
Briefly: In vitro JAK kinase assay (HTRF, phosphorylation of a biotinylated peptide), JAK3. In a few lines:
as §1

For test [3], the target named is TYK2 (Homo sapiens, UniProt P29597). Briefly: TYK2 kinase inhibition (Table A1).
Test [4] has as its target T3, human JAK2 (a.a. 828-1132) (Homo sapiens, UniProt O60674).
T3 construct: JAK2 (a.a. 828-1132); His tag (N); made in house; host or cells: insect cells (baculovirus)
The test is described as follows: In vitro JAK kinase assay (HTRF, phosphorylation of a biotinylated peptide), JAK2. Summed up: as §1
Background: Time-resolved FRET reads energy transfer from a long-lived donor to a nearby acceptor.

Test [5] addresses T4, Recombinant Human Anaplastic Lymphoma Kinase (Homo sapiens, UniProt Q9UM73).
T4 construct: purchased Invitrogen, Carlsbad, Calif
Briefly: ALK HTRF kinase assay. Summed up:
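Recombinant human ALK with biotinylated peptide substrate; phosphorylation detected by HTRF using Eu-labelled anti-phosphotyrosine antibody and streptavidin-allophycocyanin. IC50 from a sigmoidal fit with Hill slope.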

[6] abbreviates: percentage inhibition of the example compound at a concentration of 500 nM or 1 mM (not specified which).
The mark [7] stands for this setting: Table B1, cells without percent sign.
Setting [8] is: compound at a concentration of 500 nM or 1 mM (not specified), cells shown as percentage.
The mark [9] stands for this setting: method AA1 (90 μM ATP) or AA2 (1000 μM ATP), not stated per value.
[10] abbreviates: method AA1 (3 μM ATP) or AA2 (1000 μM ATP), not stated per value.
The mark [11] stands for this setting: method AA1 (30 μM ATP) or AA2 (1000 μM ATP), not stated per value.
The mark [12] stands for this setting: compound at 500 nM or 1 mM, 90 μM ATP.

Structures can show the parent of a compound that is named as a salt. Where two headings read alike, the source gives them in different places.

Sequence of TYK2 (P29597 whole entry): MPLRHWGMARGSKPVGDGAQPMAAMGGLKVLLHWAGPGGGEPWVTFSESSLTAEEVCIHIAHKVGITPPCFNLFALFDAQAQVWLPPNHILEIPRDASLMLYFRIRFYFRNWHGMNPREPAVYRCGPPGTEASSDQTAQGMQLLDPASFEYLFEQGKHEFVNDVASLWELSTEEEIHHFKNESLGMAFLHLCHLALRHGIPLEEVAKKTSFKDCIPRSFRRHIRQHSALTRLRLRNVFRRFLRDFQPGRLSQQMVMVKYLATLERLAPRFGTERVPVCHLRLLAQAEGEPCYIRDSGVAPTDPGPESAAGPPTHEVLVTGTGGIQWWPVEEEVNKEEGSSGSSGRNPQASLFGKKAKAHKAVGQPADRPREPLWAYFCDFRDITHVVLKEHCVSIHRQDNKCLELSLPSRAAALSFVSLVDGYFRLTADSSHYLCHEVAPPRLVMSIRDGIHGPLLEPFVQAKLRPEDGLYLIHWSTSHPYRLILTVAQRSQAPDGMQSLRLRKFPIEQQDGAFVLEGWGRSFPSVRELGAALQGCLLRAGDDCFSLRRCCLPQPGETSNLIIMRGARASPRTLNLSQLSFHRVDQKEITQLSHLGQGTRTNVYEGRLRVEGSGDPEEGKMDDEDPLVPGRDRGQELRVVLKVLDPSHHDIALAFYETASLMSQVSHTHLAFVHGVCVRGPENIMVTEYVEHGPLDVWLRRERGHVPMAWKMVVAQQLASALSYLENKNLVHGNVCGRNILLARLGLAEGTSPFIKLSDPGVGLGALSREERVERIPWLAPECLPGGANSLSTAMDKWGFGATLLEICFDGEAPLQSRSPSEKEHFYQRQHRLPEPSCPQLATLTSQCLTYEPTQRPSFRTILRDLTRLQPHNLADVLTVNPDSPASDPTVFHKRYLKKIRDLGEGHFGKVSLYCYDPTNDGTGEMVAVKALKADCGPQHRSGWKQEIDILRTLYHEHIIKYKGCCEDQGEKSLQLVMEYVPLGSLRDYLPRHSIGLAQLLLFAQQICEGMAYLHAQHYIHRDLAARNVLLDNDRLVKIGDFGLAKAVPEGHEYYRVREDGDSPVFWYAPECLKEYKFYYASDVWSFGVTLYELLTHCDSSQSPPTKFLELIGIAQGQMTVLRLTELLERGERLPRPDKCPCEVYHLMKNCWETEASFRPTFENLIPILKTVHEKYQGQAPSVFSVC
T4 sequence (Q9UM73 19-1620): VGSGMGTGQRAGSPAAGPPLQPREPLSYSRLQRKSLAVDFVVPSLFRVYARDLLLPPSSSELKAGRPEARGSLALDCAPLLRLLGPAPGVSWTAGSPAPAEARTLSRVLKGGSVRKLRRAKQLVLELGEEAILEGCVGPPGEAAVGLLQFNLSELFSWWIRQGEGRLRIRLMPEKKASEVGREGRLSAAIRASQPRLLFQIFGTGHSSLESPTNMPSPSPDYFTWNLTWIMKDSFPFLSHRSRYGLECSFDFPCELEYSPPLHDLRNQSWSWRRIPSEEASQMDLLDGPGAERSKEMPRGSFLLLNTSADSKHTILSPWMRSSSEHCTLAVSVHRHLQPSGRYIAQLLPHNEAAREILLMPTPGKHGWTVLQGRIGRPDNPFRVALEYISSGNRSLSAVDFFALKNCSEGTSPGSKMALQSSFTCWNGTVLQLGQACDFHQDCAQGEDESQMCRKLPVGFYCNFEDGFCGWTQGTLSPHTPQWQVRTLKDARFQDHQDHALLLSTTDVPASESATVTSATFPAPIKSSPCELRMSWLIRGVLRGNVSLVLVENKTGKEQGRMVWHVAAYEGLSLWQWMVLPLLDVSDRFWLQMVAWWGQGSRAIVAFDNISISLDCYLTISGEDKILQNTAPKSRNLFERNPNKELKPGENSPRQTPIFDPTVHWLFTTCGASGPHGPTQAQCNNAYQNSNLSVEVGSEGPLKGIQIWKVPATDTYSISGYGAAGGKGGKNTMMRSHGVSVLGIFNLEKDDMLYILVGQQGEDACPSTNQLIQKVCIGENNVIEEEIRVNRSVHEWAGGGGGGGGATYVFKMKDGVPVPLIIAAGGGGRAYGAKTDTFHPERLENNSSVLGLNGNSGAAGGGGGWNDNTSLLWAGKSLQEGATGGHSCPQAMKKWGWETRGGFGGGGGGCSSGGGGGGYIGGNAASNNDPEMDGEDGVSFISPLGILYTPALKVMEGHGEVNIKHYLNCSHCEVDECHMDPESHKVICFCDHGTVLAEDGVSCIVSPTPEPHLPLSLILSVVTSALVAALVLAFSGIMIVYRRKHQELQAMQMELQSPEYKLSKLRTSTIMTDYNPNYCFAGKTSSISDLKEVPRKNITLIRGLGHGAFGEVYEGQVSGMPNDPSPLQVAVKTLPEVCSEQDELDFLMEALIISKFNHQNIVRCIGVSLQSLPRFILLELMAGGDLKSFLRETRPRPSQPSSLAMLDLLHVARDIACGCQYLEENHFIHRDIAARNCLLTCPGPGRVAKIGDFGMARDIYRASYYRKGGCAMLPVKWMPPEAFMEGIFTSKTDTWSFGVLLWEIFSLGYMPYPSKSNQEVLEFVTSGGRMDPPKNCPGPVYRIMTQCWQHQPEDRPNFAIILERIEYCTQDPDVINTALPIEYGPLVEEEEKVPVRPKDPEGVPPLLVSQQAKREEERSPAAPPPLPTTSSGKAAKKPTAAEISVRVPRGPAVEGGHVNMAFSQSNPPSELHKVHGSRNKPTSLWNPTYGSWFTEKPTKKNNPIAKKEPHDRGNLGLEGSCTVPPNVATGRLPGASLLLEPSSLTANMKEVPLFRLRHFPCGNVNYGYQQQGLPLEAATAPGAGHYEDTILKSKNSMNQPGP
T2 sequence (P52333 781-1124): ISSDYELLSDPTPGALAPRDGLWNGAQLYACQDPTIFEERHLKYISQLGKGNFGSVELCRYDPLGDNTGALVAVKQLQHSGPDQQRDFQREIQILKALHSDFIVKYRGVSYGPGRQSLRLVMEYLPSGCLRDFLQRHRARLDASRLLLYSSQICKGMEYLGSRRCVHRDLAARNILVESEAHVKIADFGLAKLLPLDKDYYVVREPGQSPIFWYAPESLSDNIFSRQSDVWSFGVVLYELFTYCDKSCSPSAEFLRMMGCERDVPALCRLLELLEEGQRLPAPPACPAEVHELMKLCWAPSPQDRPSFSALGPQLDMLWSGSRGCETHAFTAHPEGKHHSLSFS
T1 sequence (P23458 849-1154): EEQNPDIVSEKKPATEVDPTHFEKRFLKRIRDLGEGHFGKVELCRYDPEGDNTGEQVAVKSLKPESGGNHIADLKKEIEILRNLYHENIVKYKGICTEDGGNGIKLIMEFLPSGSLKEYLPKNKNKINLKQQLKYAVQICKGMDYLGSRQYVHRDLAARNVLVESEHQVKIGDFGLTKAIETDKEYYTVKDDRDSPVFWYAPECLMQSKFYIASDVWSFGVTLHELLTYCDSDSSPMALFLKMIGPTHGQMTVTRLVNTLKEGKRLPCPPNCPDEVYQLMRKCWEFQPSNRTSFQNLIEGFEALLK
T3 sequence (O60674 828-1132): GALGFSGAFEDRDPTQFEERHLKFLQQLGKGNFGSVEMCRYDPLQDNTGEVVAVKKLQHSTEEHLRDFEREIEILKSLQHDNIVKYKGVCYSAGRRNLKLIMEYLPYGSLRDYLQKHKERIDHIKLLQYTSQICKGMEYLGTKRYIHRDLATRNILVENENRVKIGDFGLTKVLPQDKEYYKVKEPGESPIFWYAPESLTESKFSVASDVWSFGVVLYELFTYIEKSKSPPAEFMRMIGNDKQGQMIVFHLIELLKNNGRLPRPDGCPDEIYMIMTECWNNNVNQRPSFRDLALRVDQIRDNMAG

As to `CS(=O)(=O)N1CCN(C(=O)Nc2ccc3cc2CCc2cncc(c2)Nc2ncc(Cl)c(n2)N3)CC1` [Example B318, N-[6-Chloro-2,4,8,18,22-pentaazatetracyclo[14.3.1.1(3,7).1(9,13)]docosa-1(20),3(22),4,6,9(21),10,12,16,18-nonaen-12-yl]-4-(methylsulfonyl)piperazine-1-carboxamide bis(trifluoroacetate)], the IC50 – broadly, the concentration that inhibits the measured activity by half – is 24 nM in test [1] (Table B1), > 400 nM in test [2] (Table B1), 70 nM in test [3] (Table B1) and 371 nM in test [4] (Table B1). Besides, the “ALK % of inhibition at a concentration of 500 nM or 1 mM” value (“ALK % of inhibition” for short) in test [5] (setting [6]) amounted to 61%.

Regarding `O=C(NCc1ccccc1)Nc1ccc2cc1CCc1cccc(c1)Nc1ncc(Cl)c(n1)N2` [Example B93, N-benzyl-N′-[6-chloro-2,4,8,22-tetraazatetracyclo[14.3.1.1(3,7).1(9,13)]docosa-1(20),3(22),4,6,9(21),10,12,16,18-nonaen-12-yl]urea trifluoroacetate], the half-inhibitory concentration (IC50) in test [1] (Table B1) was 2.6 nM; in test [2] (Table B1), 43 nM; in test [3] (Table B1) it was 12 nM; in test [4] (Table B1) it was 3.4 nM; in test [5] (setting [7]), > 1000 nM.

On to `CCS(=O)(=O)NCCNC(=O)Nc1ccc2cc1CCc1cccc(c1)Nc1ncc(Cl)c(n1)N2` [Example B325, N-{2-[({[6-Chloro-2,4,8,22-tetraazatetracyclo[14.3.1.1(3,7).1(9,13)]docosa-1(20),3(22),4,6,9(21),10,12,16,18-nonaen-12-yl]amino}carbonyl)amino]ethyl}ethanesulfonamide trifluoroacetate], for which the IC50 in test [1] (Table B1) worked out at 2 nM; in test [2] (Table B1), 6.4 nM; in test [3] (Table B1), 5.5 nM; in test [4] (Table B1) it was 1.6 nM. Moreover, the “ALK % of inhibition” value in test [5] (setting [6]) stood at 19%.

`O=C1Nc2cccc(c2)Nc2ncc(Cl)c(n2)Nc2cccc1c2` [Example C1, 6-Chloro-2,4,8,15,22-pentaazatetracyclo[14.3.1.1(3,7).1(9,13)]docosa-1(20),3(22),4,6,9(21),10,12,16,18-nonaen-14-one hydrochloride]: the half-inhibitory concentration (IC50) in test [1] is > 1000 nM; in test [2] it was > 1000 nM; in test [3], > 1000 nM; in test [4], 900 nM; in test [5], > 10000 nM.

As for `O=C(Nc1cc2cc(c1)Nc1nc(ncc1Cl)Nc1cccc(c1)CC2)Nc1ccccc1F` [Example B213, N-[6-Chloro-2,4,8,22-tetraazatetracyclo[14.3.1.1(3,7).1(9,13)]docosa-1(20),3(22),4,6,9(21),10,12,16,18-nonaen-11-yl]-N′-(2-fluorophenyl)urea trifluoroacetate], the half-maximal inhibitory concentration (IC50) turned out to be 70 nM in test [1] (Table B1), 184 nM in test [2] (Table B1), 206 nM in test [3] (Table B1) and 173 nM in test [4] (Table B1). For the same compound, in test [5] (setting [8]), the “ALK % of inhibition” value was 11%.

On to `O=C(CC1CCN(S(=O)(=O)c2cccnc2)CC1)Nc1ccc2cc1CCc1cccc(c1)Nc1ncc(Cl)c(n1)N2` [Example A212, N-[6-Chloro-2,4,8,22-tetraazatetracyclo[14.3.1.1(3,7).1(9,13)]docosa-1(20),3(22),4,6,9(21),10,12,16,18-nonaen-12-yl]-2-[1-(pyridin-3-ylsulfonyl)piperidin-4-yl]acetamide bis(trifluoroacetate)], for which the half-maximal inhibitory concentration (IC50) is 1.3 nM in test [1] (setting [9]), > 200 nM in test [2] (setting [10]), 85 nM in test [3] and 8.6 nM in test [4] (setting [11]). In addition, the “ALK % of inhibition” value in test [5] (setting [12]) came to 45%.

With `Cc1ccc(NC(=O)Nc2ccc3cc2CCc2cccc(c2)Nc2ncc(Cl)c(n2)N3)cc1` [Example B92, N-[6-Chloro-2,4,8,22-tetraazatetracyclo[14.3.1.1(3,7).1(9,13)]docosa-1(20),3(22),4,6,9(21),10,12,16,18-nonaen-12-yl]-N′-(4-methylphenyl)urea trifluoroacetate], the half-maximal inhibitory concentration (IC50) in test [1] (Table B1) was 4 nM; in test [2] (Table B1), 61 nM; in test [3] (Table B1), 9.7 nM; in test [4] (Table B1) it was 5.3 nM; in test [5] (setting [7]), > 1000 nM.

As to `N#CCC(=O)N1CCC(CC(=O)Nc2ccc3cc2CCc2cncc(c2)Nc2ncc(Cl)c(n2)N3)CC1` [Example A245, N-[6-Chloro-2,4,8,18,22-pentaazatetracyclo[14.3.1.1(3,7).1(9,13)]docosa-1(20),3(22),4,6,9(21),10,12,16,18-nonaen-12-yl]-2-[1-(cyanoacetyl)piperidin-4-yl]acetamide bis(trifluoroacetate)], the concentration for half-maximal inhibition (IC50) in test [1] (setting [9]) is 3.2 nM; in test [2] (setting [10]), > 400 nM; in test [3], 41 nM; in test [4] (setting [11]), 117 nM. Besides, in test [5] (setting [12]), the “ALK % of inhibition” value came out at 47%.

For the compound `NS(=O)(=O)N1CC[C@@H](NC(=O)Nc2ccc3cc2CCc2cccc(c2)Nc2ncc(Cl)c(n2)N3)C1` [Example B179, (3R)-3-[({[6-Chloro-2,4,8,22-tetraazatetracyclo[14.3.1.1(3,7).1(9,13)]docosa-1(20),3(22),4,6,9(21),10,12,16,18-nonaen-12-yl]amino}carbonyl)amino]pyrrolidine-1-sulfonamide trifluoroacetate], the IC50 in test [1] (Table B1) amounted to 0.23 nM; in test [2] (Table B1), 1.3 nM; in test [3] (Table B1), 2.8 nM; in test [4] (Table B1), 0.84 nM. In test [5] (setting [8]), the “ALK % of inhibition” value was determined as 43%.

As for `CNC(=O)Nc1ccc2cc1CCc1cncc(c1)Nc1ncc(Cl)c(n1)N2` [Example B135, N-[6-Chloro-2,4,8,18,22-pentaazatetracyclo[14.3.1.1(3,7).1(9,13)]docosa-1(20),3(22),4,6,9(21),10,12,16,18-nonaen-12-yl]-N′-methylurea bis(trifluoroacetate)], the IC50 in test [1] (Table B1) worked out at 0.69 nM; in test [2] (Table B1), 30 nM; in test [3] (Table B1), 6.8 nM; in test [4] (Table B1) it was 4.3 nM. Further, the “ALK % of inhibition” value in test [5] (setting [8]) is listed as 13%.

In the case of `CC(C)(C)C(=O)N1CCC(CC(=O)Nc2ccc3cc2CCc2cccc(c2)Nc2ncc(Cl)c(n2)N3)CC1` [Example A88, N-[6-Chloro-2,4,8,22-tetraazatetracyclo[14.3.1.1(3,7).1(9,13)]docosa-1(20),3(22),4,6,9(21),10,12,16,18-nonaen-12-yl]-2-[1-(2,2-dimethylpropanoyl)piperidin-4-yl]acetamide trifluoroacetate], the IC50 in test [1] (setting [9]) was determined as 14 nM; in test [2] (setting [10]), 86 nM; in test [3], 47 nM; in test [4] (setting [11]), 24 nM. The “ALK % of inhibition” value in test [5] (setting [12]) stood at 22%.

Regarding `CN1c2cccc(c2)OCCc2cccc(c2)Nc2ncc(Cl)c1n2` [Example D9, 6-Chloro-8-methyl-14-oxa-2,4,8,23-tetraazatetracyclo[15.3.1.1(3,7).1(9,13)]tricosa-1(21),3(23),4,6,9(22),10,12,17,19-nonaene trifluoroacetate], the IC50 was 183 nM in test [1] (Table D1); 489 nM in test [2] (Table D1); 137 nM in test [3] (Table D1); 47 nM in test [4] (Table D1); > 952 nM in test [5] (Table D1, 90 μM ATP).

Take `N#Cc1ccc(C(=O)Nc2ccc3cc2CCc2cccc(c2)Nc2ncc(Cl)c(n2)N3)cc1` [Example B64, N-[6-Chloro-2,4,8,22-tetraazatetracyclo[14.3.1.1(3,7).1(9,13)]docosa-1(20), 3(22),4,6,9(21),10,12,16,18-nonaen-12-yl]-4-cyanobenzamide trifluoroacetate]: the half-inhibitory concentration (IC50) in test [1] (Table B1) came to 1.2 nM; in test [2] (Table B1), 10 nM; in test [3] (Table B1) it was 3.2 nM; in test [4] (Table B1), 0.73 nM; in test [5] (setting [7]), 150 nM.

On to `CS(=O)(=O)NCCNC(=O)Nc1ccc2cc1CCc1cccc(c1)Nc1ncc(Cl)c(n1)N2` [Example B187, N-{2-[({[6-Chloro-2,4,8,22-tetraazatetracyclo[14.3.1.1(3,7).1(9,13)]docosa-1(20),3(22),4,6,9(21),10,12,16,18-nonaen-12-yl]amino}carbonyl)amino]ethyl}methanesulfonamide trifluoroacetate], for which the IC50 in test [1] (Table B1) was found to be 0.9 nM; in test [2] (Table B1), 2.4 nM; in test [3] (Table B1) it was 1.9 nM; in test [4] (Table B1), 0.4 nM. For the same compound, the “ALK % of inhibition” value in test [5] (setting [8]) was determined as 29%.

Turning to `O=C(Nc1cc2cc(c1)Nc1nc(ncc1Cl)Nc1cccc(c1)CC2)NC1CCCC1` [Example B215, N-[6-Chloro-2,4,8,22-tetraazatetracyclo[14.3.1.1(3,7).1(9,13)]docosa-1(20),3(22),4,6,9(21),10,12,16,18-nonaen-11-yl]-N′-cyclopentylurea trifluoroacetate], the half-inhibitory concentration (IC50) in test [1] (Table B1) was found to be 91 nM; in test [2] (Table B1), 189 nM; in test [3] (Table B1) it was 766 nM; in test [4] (Table B1), 43 nM. Also, the “ALK % of inhibition” value in test [5] (setting [8]) is recorded as 31%.

Source of the values: US8871753B2, “Macrocyclic compounds and their use as kinase inhibitors” (Incyte Corporation, priority 2008, dated 2014).
